In US11147859B2, “Diffusion enhancing compounds and their use alone or with thrombolytics” (Diffusion Pharmaceuticals LLC, priority 2009, dated 2021):
“And” between values parts separate entries of the source, which are not always exact repeats. Equal entries are not always repeated. “Also recorded” adds a separate entry of the source.

Experiments:
[1] = tested on: rabbit small clot embolic stroke model (RSCEM); assay: Rabbit small clot embolic stroke model (RSCEM), quantal dose-response analysis of behavior; type: in vivo, Male New Zealand white rabbits; conditions: TSC 0.25 mg/kg IV bolus 1 hour post-embolization; behavior measured 24 hours following embolization; Mean±SEM
Source text: Methods: This model uses rabbits and is known as RSCEM. Male New Zealand white rabbits were anesthetized using isoflurane (5% induction, 2% maintenance by facemask), the bifurcation of the right carotid artery was exposed and the external carotid was ligated just distal to the bifurcation, where a catheter was inserted into the common carotid and secured with ligatures. The incision was closed around the catheter with the distal ends left accessible outside the neck; the catheter was filled with heparinized saline and plugged with an injection cap. Rabbits were allowed to recover from anesthesia for a minimum of 2 h until they behaved normally. […] Microclots were re-suspended in PBS, then washed and allowed to settle, followed by aspiration of the supernatant and spiking of the microclots with tracer quantities of 15-μm radiolabeled microspheres. The specific activity of the particles was determined by removing an aliquot, after which appropriate volumes of PBS solution were added so that a predetermined weight of clot particles were rapidly injected through the catheter and both the syringe and catheter were flushed with 5 ml of normal saline. […]
These parameters are measures of the amount of microclots (in mg) that produce neurologic dysfunction in 50% of a group of animals (P50). The P50 values are then calculated as described previously and are presented as Mean±SEM. […]

[2] = tested on: collagenase-injection model of ICH; assay: Collagenase-injection model of intracranial hemorrhage (ICH); type: in vivo, Sprague-Dawley rats
Experimental: Twelve male, Sprague-Dawley rats (Taconic, Inc.), weighing between 250 to 300 Grams were fed ad libitum and maintained on a 12-hour light/dark cycle. The rats were randomly assigned to 1 of 2 groups as follows: TSC-treated group (n=6) receiving intravenous infusion of TSC (total dose 0.091 mg/kg) and a Control group receiving intravenous infusion of 0.9% normal saline. A collagenase-injection model of ICH was utilized. Animals were anesthetized for 5 minutes with 5% halothane and endotracheally intubated. Anesthesia was maintained under 1 to 1.5% halothane with ventilation supported using Fi02 of 50%. Tail artery cannulation was applied to monitor the blood pressure and arterial blood gas, and a rectal temperature probe monitored body temperature. The right femoral vein was cannulated and connected to a microinjection infusion pump for TSC or saline administration. Body temperature was maintained at 37° C. with a heating pad. Rats were secured into a stereotactic frame with a midline incision over the skull and a cranial burr hole of 1 mm in diameter was drilled with 0.2 mm anterior and 3.5 mm right lateral to Bregma. A 26-gauge needle was inserted stereotactically into the right basal ganglion (5.5 mm ventral) and 5 μL collagenase (0.05 U bacteria collagenase; type IV, Sigma Chemical Co.) was infused at a rate of 1 μL/min using a microinfusion pump. The needle was kept in the striatum for an additional 5 minutes to limit collagenase flow back into the burr hole. After withdrawing the needle, the craniotomy was sealed with bone wax and the wound was sutured closed. TSC was injected intravenously 3 hours after ICH at a final total dosage of 0.091 mg/kg. The TSC formulation used was the sterile lyophilized TSC injectable formulation which was reconstituted with sterile water for injection and diluted with deionized water pH'd to 8.0 with dilute sodium carbonate. […] The outcomes assessed 48 hours post-ICH included hematoma volume, hemoglobin content representing hemorrhagic volume in the injected striatum, and tissue edema. […] Using Meta Morph image analysis software, the hemorrhage area for each section was measured and the total hematoma volume was calculated by summing the clot area in each section and multiplying by the thickness of the sections. A tissue edema index was calculated in each rat by measuring and comparing both of the hemispheres (Edema Index=(R−L)×100/L, R is right hemisphere volume, L is left hemisphere volume). A hemorrhagic volume index was quantified by measuring hemoglobin content in the injected hemisphere. […] This reaction converts hemoglobin to cyanomethemoglobin, the concentration of which can be assessed by the optical density (OD) of the solution at 550 nm wavelength. […]

[3] = tested on: ischemic tissue in brain sections; assay: Ischemic stroke model: middle cerebral artery and two carotid arteries ligated for 2 hours; type: in vivo; conditions: TSC 0.1 mg/kg given after removal of 2 hour ligature; rats sacrificed after 24 hours
Experimental: In order to find new drugs for stoke victims, different animal models of ischemic stroke are used. In one model, blood vessels (middle cerebral artery, two carotid arteries) are ligated for a period of 2 hours. The ligature is then removed, a drug is given, and the animals (rats in this case) are sacrificed after 24 hours. The brain sections are stained and examined in order to determine the amount of damaged (ischemic) tissue.

[4] = Solubility of TSC in aqueous cyclodextrin solutions; type: physicochemical
[5] = Stability of TSC in formulation as a function of pH; type: physicochemical; conditions: formulation with glycine buffer; pH around 8.2+/-0.5 required
[6] = Absorption of TSC into the blood stream after intramuscular injection with gamma cyclodextrin; type: in vivo; conditions: rats
[7] = TSC 0.1 mg/kg, rat collagenase model (summary in description)

TSC concentration reached in solution ([4]; TSC formulated with a cyclodextrin and mannitol): over 20 mg TSC/ml of solution
stability versus pH [5]: more stable at higher pHs
absorption into the blood stream [6]: quick
SMILES: CC(/C=C/C=C(\C)C(=O)[O-])=C\C=C\C=C(C)\C=C\C=C(/C)C(=O)[O-].[Na+].[Na+] [TSC, trans sodium crocetinate]
P50 (amount of microclots that produces neurologic dysfunction in 50% of a group of animals) [1]: 2.84±1.01 mg and 2.84±0.51 mg
hemorrhage volume (amount of blood that hemorrhages into the brain) [2, 7]: decrease
reduction in amount of edema caused by the hemorrhagic stroke [2, 7]: about 50%
hematoma volume/size after ICH vs saline control ([2]; TSC total dose 0.091 mg/kg IV starting 3 hours after ICH, assessed 48 hours post-ICH, n=6, 0.091 mg/kg): slightly, but not statistically significantly, reduced; also recorded: did not differ
reduction in hemorrhagic volume (tissue hemoglobin content) vs saline control ([2]; TSC total dose 0.091 mg/kg IV starting 3 hours after ICH, assessed 48 hours post-ICH, n=6, p<0.05): approximately 20%
reduction in the amount of ischemic tissue [3]: about 60%
TSC concentration reached in aqueous solution ([4]; TSC and gamma-cyclodextrin): ≤ 44 milligrams of TSC per ml of solution
